From patent publication EP0411593A2, “Use of bis (aminothiocarbonyl) disulfide for treating ulcer” (KURARAY CO., LTD., priority 1989, dated 1991)

Columns and labels:
[1] = test system: HCl-ethanol induced ulcer; assay: Antiulcer activity (HCl-ethanol ulcer), oral administration; type: in vivo; conditions: rats, inhibition of ulcer coefficient vs control; for Inhibitation Rate (%): dose 5 mg/kg orally one hour before HCl-ethanol
Procedure: Antiulcer activity (HCl-ethanol ulcer) 1.5 ml of 60% ethanol aqueous solution containing 150 mM of hydrochloric acid was orally administered to rats. One hour thereafter the rats were sacrificed and the length (mm) of HCl-ethanol induced ulcer generated at the mucosa of the stomach was measured. The sum of the ulcer length per animal is defined as ulcer coefficient. Specimens each was orally administered one hour before the HCl-ethanol administration. Inhibition rate was calculated by dividing the difference in ulcer coefficient between the control group and the specimen-administered group by the ulcer coefficient of the control group.

[2] = Acute toxicity through oral administration; conditions: mouse, in vivo, male ICR-strain mice (5 weeks old), read-out: LD₅₀
Procedure: Acute toxicity tests through oral administration were carried out using male ICR-strain mice (5 weeks old).
The LD₅₀ values of the compound (1) of the present invention was 2000 mg/kg or more and thus higher saftety as compared with the effective amount was ascertained.

Compound	Inhibitation Rate (%) [1] [%]	other results
S=C(SSC(=S)N1CCOCC1)N1CCOCC1 [Compound Number (1)]	93.7	LD50 [2]: ≥ 2000 mg/kg
CC1CN(C(=S)SSC(=S)N2CC(C)OC(C)C2)CC(C)O1 (centres unmarked) [Compound Number (2)]	81.7	–
OCCN1CCN(C(=S)SSC(=S)N2CCN(CCO)CC2)CC1 [Compound Number (3)]	24.3	–
S=C(SSC(=S)N1CCCCC1)N1CCCCC1 [Compound Number (4)]	64.1	–
OCCC1CCN(C(=S)SSC(=S)N2CCC(CCO)CC2)CC1 [Compound Number (5), bis[[4-(2-hydroxyethyl)piperidiono]thiocarbonyl]disulfide]	37.4	–
CC(=O)c1ccc2c(c1)C(=O)C1(CC1)O2 [Spizofurone, reference compound]	–	Inhibiton Rate (%) ([1]; dose 100 mg/kg orally one hour before HCl-ethanol): 86.6%
Teprenone [reference compound]	–	Inhibiton Rate (%) ([1]; dose 25 mg/kg orally one hour before HCl-ethanol): 48.9%
